Results as given in PMC10435442, “Developing multitarget coumarin based anti-breast cancer agents: synthesis and molecular modeling study” (Scientific Reports, 2023).
Converted amounts (≈) assume the structure as drawn. Read-outs that look alike come from different tables or passages of the source.

How the values were obtained:
[1] = tested on: MDA-MB-231; test: MTT cytotoxicity assay, MDA-MB-231; conditions: for IC50: Homo sapiens; for % viability: MDA; for anti-proliferative activity against MDA-MB-231 (in words): SAR discussion
[2] = tested on: MCF-7; test: MTT cytotoxicity assay, MCF-7; conditions: for IC50: Homo sapiens; for anti-proliferative activity against MCF-7 (in words): SAR discussion
[3] = target: EGFR (Homo sapiens, UniProt P00533); test: In vitro EGFR enzyme inhibition assay (ELISA); conditions: for inhibition at 10 pg/mL / inhibition at 0.0001 µg/mL / inhibition at 0.001 µg/mL / inhibition at 0.01 µg/mL: read-out: EGFR %inh; for EGFR %inh: lab report 01-11-2021
Sequence of EGFR (P00533 25-1210): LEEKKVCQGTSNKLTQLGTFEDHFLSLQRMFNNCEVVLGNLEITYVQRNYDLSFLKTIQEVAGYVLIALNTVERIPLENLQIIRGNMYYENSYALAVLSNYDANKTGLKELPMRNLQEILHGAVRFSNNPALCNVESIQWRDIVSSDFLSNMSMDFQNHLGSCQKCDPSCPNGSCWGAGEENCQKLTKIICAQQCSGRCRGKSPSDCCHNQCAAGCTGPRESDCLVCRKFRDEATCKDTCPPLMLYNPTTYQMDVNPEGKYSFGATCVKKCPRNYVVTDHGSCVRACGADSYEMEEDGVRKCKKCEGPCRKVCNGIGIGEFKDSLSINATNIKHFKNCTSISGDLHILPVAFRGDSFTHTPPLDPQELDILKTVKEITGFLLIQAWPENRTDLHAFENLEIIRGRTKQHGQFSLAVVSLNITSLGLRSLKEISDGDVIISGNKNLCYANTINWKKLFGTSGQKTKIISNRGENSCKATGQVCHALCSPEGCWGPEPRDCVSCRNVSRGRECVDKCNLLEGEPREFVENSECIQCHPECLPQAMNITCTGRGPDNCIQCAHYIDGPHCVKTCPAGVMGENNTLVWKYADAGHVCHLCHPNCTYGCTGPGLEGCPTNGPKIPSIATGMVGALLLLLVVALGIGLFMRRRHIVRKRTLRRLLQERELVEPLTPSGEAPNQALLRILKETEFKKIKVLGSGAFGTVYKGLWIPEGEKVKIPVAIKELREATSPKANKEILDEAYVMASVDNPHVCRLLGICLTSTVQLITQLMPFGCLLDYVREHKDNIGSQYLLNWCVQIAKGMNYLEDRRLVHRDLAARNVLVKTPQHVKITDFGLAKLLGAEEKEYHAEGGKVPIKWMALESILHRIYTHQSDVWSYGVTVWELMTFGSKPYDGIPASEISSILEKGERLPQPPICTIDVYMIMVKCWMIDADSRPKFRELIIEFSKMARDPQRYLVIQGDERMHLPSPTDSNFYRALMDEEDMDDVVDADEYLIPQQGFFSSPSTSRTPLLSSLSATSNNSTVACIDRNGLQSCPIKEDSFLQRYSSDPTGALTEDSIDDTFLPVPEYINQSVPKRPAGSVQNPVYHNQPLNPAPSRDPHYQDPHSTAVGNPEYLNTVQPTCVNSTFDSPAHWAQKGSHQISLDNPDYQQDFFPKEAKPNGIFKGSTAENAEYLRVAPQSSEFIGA

[4] = tested on: MCF-10A; test: MTT cytotoxicity assay, nonmalignant MCF-10A; conditions: read-out: MCF-10A IC50; MTT, nonmalignant MCF-10A;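 also: MTT assay with absorbance read at 570 nm after 48 h exposure of cells to serial compound concentrations at 37 °C, testing selectivity against nonmalignant versus cancer cells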
[5] = in vitro; conditions: human, MCF-10A cells (nonmalignant breast)
[6] = MDA-MB-231, read-out: MDA-MBA-231 IC50
[7] = MDA-MB-231, read-out: cytotoxicity_IC50 MDA
[8] = MCF7, read-out: cytotoxicity_IC50 mcf7
[9] = EGFR IC50, lab report 01-09-2021, 04 compounds, reference Erlotinib
[10] = EGFR IC50, lab report 01-11-2021, 10 compounds

Row | SMILES | IC50 ([3]; EGFR inhibition IC50) [µM] | Percentage above Reference IC50 (potency relative to erlotinib) ([3]; reference Erlotinib) [%] | IC50 at 48 h [5] [µg/mL] | IC50 [1, 6] [µM] | IC50 [1, 7] [µg/mL] | % viability ([1]; 0.4ug (log conc. -0.41)) [%] | % viability ([1]; 1.6ug (log conc. 0.19)) [%] | IC50 ([2]; MCF7, read-out: MCF-7 IC50) [µM] | IC50 [2, 8] [µg/mL] | % viability ([2]; MCF7, 0.4ug) [%] | % viability ([2]; MCF7, 1.6ug) [%] | % viability ([2]; MCF7, 6.3ug) [%] | % viability ([2]; MCF7, 25ug) [%] | % viability ([2]; MCF7, 100ug) [%] | IC50 [4] [µM] | viability at 48 h, 0.4 ug [5] [%] | viability at 48 h, 1.6 ug [5] [%] | viability at 48 h, 6.25 ug [5] [%] | viability at 48 h, 25 ug [5] [%] | viability at 48 h, 100 ug [5] [%] | other results
1 | O=C(COc1ccc2c(CCl)cc(=O)oc2c1)c1ccccc1 [Compound 5, 4-(Chloromethyl)-7-(2-oxo-2-phenylethoxy)-2H-chromen-2-one] | 0.316 ± 0.0066 | 54.886 | 27.6 ± 1.35 (≈ 84 µM) | 5.8 ± 0.1 | 1.91 ± 0.1 | 61.18 | 50.473 | 39.5 ± 0.79 | 13 ± 0.79 | 67.523 | 64.281 | 52.844 | 47.217 | 38.104 | 83.9 ± 1.35 | 74.4 | 66.7 | 57.6 | 49.9 | 43.5 | % viability ([1]; 6.25ug (log conc. 0.8)): 42.019%; % viability ([1]; 25ug (log conc. 1.4)): 33.628%; % viability ([1]; 100ug (log conc. 2)): 22.3344%; IC50 [3, 9]: 0.316 µM; inhibition at 10 pg/mL [3]: 29%; inhibition at 0.0001 µg/mL [3]: 50%; inhibition at 0.001 µg/mL [3]: 70%; inhibition at 0.01 µg/mL [3]: 90%
2 | O=C(COc1ccc2c(COC(=O)c3ccccc3)cc(=O)oc2c1)c1ccccc1 [Compound 7, [2-Oxo-7-(2-oxo-2-phenylethoxy)-2H-chromen-4-yl]methyl benzoate] | 0.341 ± 0.019 | 24.633 | 41.9 ± 2.04 (≈ 101 µM) | 56.7 ± 1.28 | 23.5 ± 1.28 | 75.96 | 68.64 | 77.5 ± 1.94 | 32.1 ± 1.94 | 83.43 | 71.93 | 62.508 | 52.7829 | 40.856 | 101 ± 2.04 | 78.3 | 71.5 | 59.2 | 53.7 | 45.1 | % viability ([1]; 6.25ug (log conc. 0.8)): 59.243%; % viability ([1]; 100ug (log conc. 2)): 38.991%; anti-proliferative activity against MDA-MB-231 (in words) [1]: poor anti-proliferative activity; anti-proliferative activity against MCF-7 (in words) [2]: diminished the activity; IC50 [3, 10]: 0.333 µM; EGFR %inh ([3]; conc 0.01 (unit not given)): 30%; EGFR %inh ([3]; conc 0.1 (unit not given)): 42%; EGFR %inh ([3]; conc 1 (unit not given)): 67%; EGFR %inh ([3]; conc 10 (unit not given)): 89%
3 | COc1ccccc1C(=O)OCc1cc(=O)oc2cc(OCC(=O)c3ccccc3)ccc12 [Compound 11, [2-Oxo-7-(2-oxo-2-phenylethoxy)-2H-chromen-4-yl]methyl 2-methoxybenzoate] | 1.83 ± 0.038 | 7.91 | 79.2 ± 3.86 (≈ 178 µM) | 61.2 ± 1.48 | 27.2 ± 1.48 | 73.69 | 66.71 | 131 ± 3.52 | 58.1 ± 3.52 | 86.03 | 75.27 | 65.137 | 57.0548 | 45.822 | 178 ± 3.86 | 84.2 | 76.6 | 66.5 | 58.4 | 47.8 | % viability ([1]; 6.25ug (log conc. 0.8)): 58.055%; % viability ([1]; 25ug (log conc. 1.4)): 52.2673%; % viability ([1]; 100ug (log conc. 2)): 41.289%; anti-proliferative activity against MDA-MB-231 (in words) [1]: poor anti-proliferative activity; anti-proliferative activity against MCF-7 (in words) [2]: diminished the activity; IC50 [3, 9]: 1.83 µM; inhibition at 10 pg/mL [3]: 7.8%; inhibition at 0.0001 µg/mL [3]: 23%; inhibition at 0.001 µg/mL [3]: 54%; inhibition at 0.01 µg/mL [3]: 76%
4 | CC(=O)Oc1ccc2c(COC(=O)c3ccccc3)cc(=O)oc2c1 [Compound 13, (7-Acetoxy-2-oxo-2H-chromen-4-yl)methyl benzoate] | 0.363 ± 0.02 | 23.14 | 166 ± 8.1 (≈ 491 µM) | 30.7 ± 0.56 | 10.4 ± 0.56 | 65.76 | 58.55 | 111 ± 2.28 | 37.6 ± 2.28 | 80.82 | 70.97 | 64.282 | 55.0733 | 40.88 | 490 ± 8.1 | 89.7 | 81.1 | 73.6 | 63.3 | 52.2 | % viability ([1]; 6.25ug (log conc. 0.8)): 52.297%; % viability ([1]; 25ug (log conc. 1.4)): 46.9551%; % viability ([1]; 100ug (log conc. 2)): 38.515%; IC50 [3, 10]: 0.364 µM

Molecules with a lower IC50 ([3]; EGFR inhibition IC50), results first:

Row | IC50 ([3]; EGFR inhibition IC50) [µM] | Percentage above Reference IC50 (potency relative to erlotinib) ([3]; reference Erlotinib) [%] | IC50 at 48 h [5] [µg/mL] | SMILES | IC50 [1, 6] [µM] | IC50 [1, 7] [µg/mL] | % viability ([1]; 0.4ug (log conc. -0.41)) [%] | % viability ([1]; 1.6ug (log conc. 0.19)) [%] | IC50 ([2]; MCF7, read-out: MCF-7 IC50) [µM] | IC50 [2, 8] [µg/mL] | % viability ([2]; MCF7, 0.4ug) [%] | % viability ([2]; MCF7, 1.6ug) [%] | % viability ([2]; MCF7, 6.3ug) [%] | % viability ([2]; MCF7, 25ug) [%] | % viability ([2]; MCF7, 100ug) [%] | IC50 [4] [µM] | viability at 48 h, 0.4 ug [5] [%] | viability at 48 h, 1.6 ug [5] [%] | viability at 48 h, 6.25 ug [5] [%] | viability at 48 h, 25 ug [5] [%] | viability at 48 h, 100 ug [5] [%] | other results
5 | 0.154 ± 0.008 | 54.545 | 56.6 ± 2.76 (≈ 156 µM) | O=C(COc1ccc2c(CCl)cc(=O)oc2c1)c1ccc(Cl)cc1 [Compound 6, 4-(Chloromethyl)-7-(2-(4-chlorophenyl)-2-oxoethoxy)-2H-chromen-2-one] | 56.6 ± 1.12 | 20.5 ± 1.12 | 73.67 | 63.08 | 217 ± 4.77 | 78.7 ± 4.77 | 87.56 | 78.06 | 71.906 | 59.463 | 45.972 | 156 ± 2.76 | 78.1 | 70.4 | 62.2 | 54.8 | 46.8 | % viability ([1]; 6.25ug (log conc. 0.8)): 56.509%; % viability ([1]; 25ug (log conc. 1.4)): 49.4083%; % viability ([1]; 100ug (log conc. 2)): 41.124%; anti-proliferative activity against MDA-MB-231 (in words) [1]: lower activity level; anti-proliferative activity against MCF-7 (in words) [2]: lower activity level; IC50 [3, 10]: 0.154 µM; EGFR %inh ([3]; conc 0.01 (unit not given)): 34%; EGFR %inh ([3]; conc 0.1 (unit not given)): 57%; EGFR %inh ([3]; conc 1 (unit not given)): 74%; EGFR %inh ([3]; conc 10 (unit not given)): 91%
6 | 0.131 ± 0.009 | 64.122 | 135 ± 6.56 (≈ 301 µM) | O=C(COc1ccc2c(COC(=O)c3ccc(Cl)cc3)cc(=O)oc2c1)c1ccccc1 [Compound 9, [2-Oxo-7-(2-oxo-2-phenylethoxy)-2H-chromen-4-yl]methyl 4-chlorobenzoate] | 10.4 ± 0.25 | 4.65 ± 0.25 | – | – | 100 ± 2.73 | 45 ± 2.73 | 77.17 | 70.74 | 62.232 | 54.2277 | 44.25 | 301 ± 6.56 | 90.6 | 79.6 | 70.3 | 61.8 | 52.3 | anti-proliferative activity against MDA-MB-231 (in words) [1]: poor anti-proliferative activity; anti-proliferative activity against MCF-7 (in words) [2]: diminished the activity; IC50 [3, 10]: 0.131 µM
